Test systems include 786-0; COLO 205; DU-145; HCC 2998; HOP-62; HOP-92; IGROV-1; K562; LXFL 529; MOLT-4; NCI-H460; OVCAR-8; PC-3; RXF 393; SN12C; SNB-75; SW-620; T47D; UACC-257; UACC-62.
What all share (assay): NCI anticancer screen, dose series, 48 h

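Cultured in 96-well plates, cells were exposed to test compound for 48 hours across five concentrations. GI50: concentration for 50% inhibition of growth.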 The source made the active and inactive calls. Rule as the data show it: active = GI50 up to about 1.1 µM and inactive = higher.

Turning to `COc1cc2cc(c1Cl)N(C)C(=O)C[C@H](OC(=O)[C@H](C)N(C)C(C)=O)[C@]1(C)O[C@H]1[C@H](C)[C@@H]1C[C@@](O)(NC(=O)O1)[C@H](OC)/C=C/C=C(/C)C2`, the GI50 in the assay on 786-0 was 0.025 µM (active); in the assay on COLO 205, 0.02 µM (active); with DU-145 it was 0.00135 µM (active); in the assay with HCC 2998 it was 0.0175 µM (active); in the assay with HOP-62, 0.0199 µM (active); with HOP-92, 0.0118 µM (active). Also, the GI50 with IGROV-1 was 0.0239 µM (active); in the assay on K562, 0.0176 µM (active); in the assay with LXFL 529 it was 0.01 µM (active); with MOLT-4, 0.0229 µM (active); in the assay with NCI-H460, 0.0157 µM (active); in the assay with OVCAR-8 it was 0.0218 µM (active). The GI50 is 0.000505 µM (active) with PC-3; 0.0236 µM (active) in the assay with RXF 393; 0.0203 µM (active) in the assay on SN12C; 0.0174 µM (active) in the assay on SNB-75; 0.0165 µM (active) in the assay on SW-620; > 100 µM (inactive) in the assay on T47D. The figures for the GI50 with UACC-257 and in the assay on UACC-62 were 0.0373 µM (active) and 0.0337 µM (active), respectively.
Regarding `CCC1(OC(=O)CNC)C(=O)OCc2c1cc1n(c2=O)Cc2cc3ccccc3nc2-1` (configuration not stated), the GI50 was < 0.01 µM (active) with 786-0; 0.148 µM (active) in the assay on COLO 205; < 0.01 µM (active) in the assay on DU-145; 0.204 µM (active) with HCC 2998; < 0.01 µM (active) in the assay on HOP-62; 0.0491 µM (active) with HOP-92. In addition, the GI50 with IGROV-1 is 0.0601 µM (active); with K562, 0.0303 µM (active); with LXFL 529, 0.207 µM (active); with MOLT-4, < 0.01 µM (active); in the assay with NCI-H460, < 0.01 µM (active); in the assay with OVCAR-8, 0.0126 µM (active). The GI50 in the assay with PC-3 was 0.0269 µM (active); with RXF 393, 0.0185 µM (active); with SN12C, < 0.01 µM (active); with SNB-75 it was < 0.0104 µM (active); with SW-620, < 0.01 µM (active); with T47D, < 0.01 µM (active). The results for the GI50 with UACC-257 and in the assay with UACC-62 were 0.0393 µM (active) and < 0.01 µM (active), respectively.
`CCc1cccc(CC)c1NC(=O)CC1SC(N)=NC1=O` (configuration not stated): the GI50 with 786-0, in the assay with COLO 205, with HCC 2998, with HOP-62, in the assay with HOP-92 and in the assay on IGROV-1 was > 100 µM (inactive) in each case. Further, the GI50 with K562, in the assay with LXFL 529, with MOLT-4, in the assay with NCI-H460, in the assay with OVCAR-8 and in the assay on RXF 393 was > 100 µM (inactive) in each case. The GI50 with SN12C, with SNB-75, with SW-620, in the assay on UACC-257 and in the assay on UACC-62 was > 100 µM (inactive) in each case.
Consider `Cc1cc2c(Br)cc(Br)c(O)c2nc1C(=O)c1ccccc1`, for which the GI50 is 10.2 µM (inactive) in the assay with 786-0; 21.4 µM (inactive) in the assay on COLO 205; 17 µM (inactive) in the assay on DU-145; 18.7 µM (inactive) in the assay with HCC 2998; 14 µM (inactive) in the assay on HOP-62; 21 µM (inactive) in the assay with IGROV-1. For the same molecule, the GI50 in the assay with K562 was 10.4 µM (inactive); with LXFL 529, 21.1 µM (inactive); in the assay on MOLT-4 it was 24.3 µM (inactive); in the assay with NCI-H460 it was 10.6 µM (inactive); in the assay with OVCAR-8, 35 µM (inactive); in the assay on PC-3, 13.4 µM (inactive). The GI50 in the assay on RXF 393 is > 47.5 µM (inactive); in the assay with SN12C it was 20.2 µM (inactive); in the assay on SNB-75, > 74.1 µM (inactive); with SW-620, 55.8 µM (inactive); with T47D it was 8.17 µM (inactive); in the assay with UACC-257, 24.5 µM (inactive). In addition, in the assay with UACC-62, the GI50 was 9.59 µM (inactive).
As to `COc1ccc(C2=C3c4cc(OC)c(OC)cc4CCN3C(=S)SS2)cc1OC`, the GI50 in the assay on 786-0 is > 100 µM (inactive); in the assay on COLO 205, > 100 µM (inactive); with HCC 2998, > 100 µM (inactive); with HOP-62, > 100 µM (inactive); in the assay on HOP-92 it was 32.1 µM (inactive); with IGROV-1 it was > 100 µM (inactive). In addition, the GI50 was 71 µM (inactive) in the assay on K562; 52.5 µM (inactive) in the assay on LXFL 529; > 100 µM (inactive) in the assay with MOLT-4; > 100 µM (inactive) in the assay with NCI-H460; > 100 µM (inactive) in the assay with OVCAR-8; 92.3 µM (inactive) in the assay with RXF 393. Further, the GI50 in the assay with SN12C was 64.7 µM (inactive); with SNB-75 it was 25.1 µM (inactive); in the assay with SW-620, 95.9 µM (inactive); in the assay on UACC-257, 72.4 µM (inactive); in the assay with UACC-62, 22 µM (inactive).
For `CCCCCCCCCCCC(=O)OCCOCCOCCOCCOCCOC(=O)CCCCCCCCCCC`, the GI50 in the assay on 786-0, in the assay with COLO 205, with HCC 2998, in the assay with HOP-62, in the assay on HOP-92 and with IGROV-1 was > 100 µM (inactive) throughout. Moreover, the GI50 with K562, in the assay on LXFL 529, in the assay on MOLT-4, with NCI-H460, with OVCAR-8 and in the assay on RXF 393 was > 100 µM (inactive) in each case. For the same molecule, the GI50 in the assay with SN12C was > 100 µM (inactive); with SNB-75 it was > 100 µM (inactive); with SW-620, > 100 µM (inactive); in the assay on UACC-257 it was > 100 µM (inactive); with UACC-62, 56.2 µM (inactive).
Regarding `O=C(Nc1cc(C(F)(F)F)ccc1Cl)C(=O)C(C(=O)c1ccc2ccccc2c1)C1OC(=O)c2ccccc21` (configuration not stated), the GI50 in the assay on 786-0 was 5.26 µM (inactive); with COLO 205, 10.4 µM (inactive); in the assay on HCC 2998 it was 10.1 µM (inactive); with HOP-62, 6.01 µM (inactive); in the assay with HOP-92, 11.8 µM (inactive); with IGROV-1, 23.3 µM (inactive). The GI50 in the assay with K562 is 4.66 µM (inactive); in the assay with LXFL 529, 5.11 µM (inactive); in the assay with MOLT-4, 2.09 µM (inactive); in the assay with NCI-H460, 3.79 µM (inactive); in the assay with OVCAR-8 it was 5.09 µM (inactive); in the assay on RXF 393, 1.2 µM (inactive). The GI50 in the assay with SN12C is 13 µM (inactive); with SNB-75, 7.41 µM (inactive); in the assay with SW-620, 6.35 µM (inactive); in the assay with UACC-257, 10 µM (inactive); in the assay with UACC-62 it was 7.26 µM (inactive).

These data come from ChEMBL document CHEMBL1201862, “PubChem BioAssay data set” (2004).
